According to patent US9682941B2, “Substituted biphenyl analogues as dual inhibitors of aromatase and sulfatase” (ESTRYX PHARMA LIMITED, priority 2013, dated 2017):
pIC50: −log10 of the molar value.

What was measured:
[1] = molecular target: T1, aromatase (Homo sapiens, UniProt P11511); experiment: Aromatase inhibition assay in JEG-3 cells ([1β-3H] androstenedione, tritiated water release); format: cell-based; details: 1.25 hour incubation, duplicate
T1 construct: JEG-3 which constitutively expresses high amount of aromatase and steroid sulfatase; endogenous in cells; host or cells: JEG-3
T1 sequence (P11511 1-503): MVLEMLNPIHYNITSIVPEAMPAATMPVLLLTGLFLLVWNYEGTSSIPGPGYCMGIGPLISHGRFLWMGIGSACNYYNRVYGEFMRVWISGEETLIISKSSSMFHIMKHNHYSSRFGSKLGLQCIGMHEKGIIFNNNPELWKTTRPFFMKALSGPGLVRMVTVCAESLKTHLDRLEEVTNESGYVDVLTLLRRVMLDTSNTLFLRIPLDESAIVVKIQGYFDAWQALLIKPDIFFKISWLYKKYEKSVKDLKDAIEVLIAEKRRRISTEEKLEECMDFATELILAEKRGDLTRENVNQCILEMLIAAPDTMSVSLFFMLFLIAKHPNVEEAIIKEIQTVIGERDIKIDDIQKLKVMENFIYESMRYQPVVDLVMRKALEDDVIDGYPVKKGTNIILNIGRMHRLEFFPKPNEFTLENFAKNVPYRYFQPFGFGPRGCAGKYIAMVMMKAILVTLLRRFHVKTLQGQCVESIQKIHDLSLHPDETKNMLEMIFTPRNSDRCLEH
Procedure: (§1) Aromatase and steroid sulfatase enzymes inhibitions were evaluated in the human chorionic carcinoma cell line JEG-3 which constitutively expresses high amount of aromatase and steroid sulfatase.
For aromatase inhibition assay, JEG-3 cells were seeded into 96-well plates at 35,000 cells/well and maintained in MEM containing supplements. When reaching 80% confluent, the cells were washed once with serum-free MEM, incubated with [1β-^3H] androstenedione (A4, 0.2 μCi/ml) for 1.25 hour in the presence of the test substances added in a concentration series. The product, tritiated water (^3H2O), was separated using 2.5% (w/v) dextran-coated charcoal at 4-8° C. for 2 hours. The supernatant radioactivity was measured by a MicroBeta scintillation counter.
(§2) Experiments are performed in duplicate. The inhibitory concentration of 50% of the enzymatic activity is calculated.

[2] = molecular target: T2, steroid sulfatase (Homo sapiens, UniProt P08842); experiment: Steroid sulfatase (STS) inhibition assay in JEG-3 cells ([6,7-3H] estrone sulfate); format: cell-based; details: 1 hour at 37° C., duplicate
T2 construct: JEG-3 which constitutively expresses high amount of aromatase and steroid sulfatase; endogenous in cells; host or cells: JEG-3
T2 sequence (P08842 22-583): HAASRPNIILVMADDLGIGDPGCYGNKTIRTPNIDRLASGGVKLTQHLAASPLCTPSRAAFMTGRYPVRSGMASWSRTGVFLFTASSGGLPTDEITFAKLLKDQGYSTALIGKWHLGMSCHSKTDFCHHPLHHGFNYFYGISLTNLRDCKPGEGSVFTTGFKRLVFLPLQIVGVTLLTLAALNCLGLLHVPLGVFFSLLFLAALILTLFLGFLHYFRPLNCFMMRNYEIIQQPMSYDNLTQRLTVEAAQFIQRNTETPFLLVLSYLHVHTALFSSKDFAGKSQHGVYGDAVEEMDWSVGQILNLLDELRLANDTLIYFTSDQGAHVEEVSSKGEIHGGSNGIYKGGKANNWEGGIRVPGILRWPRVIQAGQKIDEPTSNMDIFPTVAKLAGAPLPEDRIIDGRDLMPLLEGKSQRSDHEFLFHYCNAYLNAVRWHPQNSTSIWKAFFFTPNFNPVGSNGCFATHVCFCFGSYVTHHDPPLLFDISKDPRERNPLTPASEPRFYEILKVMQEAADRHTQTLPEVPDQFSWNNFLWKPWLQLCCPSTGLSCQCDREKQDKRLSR
Procedure: as §1
For STS assay, JEG-3 cells were seeded into 24-well culture plates at 150,000 cells/ml/well and maintained in MEM containing supplements overnight. When reaching 80% confluent, the cells were washed once with serum-free MEM, loaded with 1 ml of substrate mix containing [6,7-3H] Estrone sulfate (E1S, 0.6 μCi/ml) and [4-14C] Estrone (E1, 4 nCi/ml) in the presence of compounds in a concentration series, and incubated for 1 hour at 37° C. The product [3H]E1 was separated from E1S by toluene partition using [4-14C]E1 to monitor extraction procedural losses, and the toluene fraction radioactivity was measured by a MicroBeta scintillation counter.
as §2

Structure (SMILES)	pIC50 [1]	pIC50 [2]
N#Cc1ccc(Cn2cnc3cccnc32)nc1-c1ccc(OS(N)(=O)=O)cc1 [Example 14, 4-(6-((3H-Imidazo[4,5-b]pyridin-3-yl)methyl)-3-cyanopyridin-2-yl)phenyl sulfamate]	8.15	7.66
N#Cc1ncc(Nn2cnc3cccnc32)cc1-c1ccc(OS(N)(=O)=O)cc1 [Example 43, 4-(5-(3H-Imidazo[4,5-b]pyridin-3-ylamino)-2-cyanopyridin-3-yl)phenyl sulfamate]	7.93	< 7.22
CSc1cc(-c2cc(N(C)n3cnc4ccccc43)ccc2C#N)ccc1OS(N)(=O)=O [Example 27, 5′-((1H-Benzo[d]imidazol-1-yl)(methyl)amino)-2′-cyano-3-(methylthio)-[1,1′-biphenyl]-4-yl sulfamate]	8.34	7.75
CN(c1cnc(C#N)c(-c2ccc(OS(N)(=O)=O)cc2)n1)n1cnc2cccnc21 [Example 44, 4-(6-((3H-Imidazo[4,5-b]pyridin-3-yl)(methyl)amino)-3-cyanopyrazin-2-yl)phenyl sulfamate]	8.24	< 7.22
CN(c1cnc(C#N)c(-c2ccc(OS(N)(=O)=O)cc2)n1)n1cnc2ccccc21 [Example 34, 4-(6-((1H-Benzo[d]imidazol-1-yl)(methyl)amino)-3-cyanopyrazin-2-yl)phenyl sulfamate]	8.08	7.45
N#Cc1ccc(Cn2cnc3ccccc32)nc1-c1ccc(OS(N)(=O)=O)cn1 [Example 42, 6′-((1H-Benzo[d]imidazol-1-yl)methyl)-3′-cyano-[2,2′-bipyridin]-5-yl sulfamate]	7.38	< 7.22
N#Cc1ccc(Cn2c(C(F)(F)F)nc3ccccc32)cc1-c1ccc(OS(N)(=O)=O)cc1 [Example 7, 2′-Cyano-5′-((2-(trifluoromethyl)-1H-benzo[d]imidazol-1-yl)methyl)biphenyl-4-yl sulfamate]	< 7.22	7.79
CN(c1ncc(C#N)c(-c2ccc(OS(N)(=O)=O)cc2)n1)n1cnc2ccccc21 [Example 16, 4-(2-((1H-Benzo[d]imidazol-1-yl)(methyl)amino)-5-cyanopyrimidin-4-yl)phenyl sulfamate]	8.19	7.66

Compounds with a higher pIC50 [1], results first:

pIC50 [1]	pIC50 [2]	Structure (SMILES)
8.49	7.59	CN(c1ccc(C#N)c(-c2ccc(OS(N)(=O)=O)cc2)c1)n1cnc2ccccc21 [Example 5, 5′-((1H-Benzo[d]imidazol-1-yl)(methyl)amino)-2′-cyano-[1,1′-biphenyl]-4-yl sulfamate]
8.49	8.04	N#Cc1ccc(Cn2cnc3ccccc32)nc1-c1ccc(OS(N)(=O)=O)cc1 [Example 10, 4-(6-((1H-Benzo[d]imidazol-1-yl)methyl)-3-cyanopyridin-2-yl)phenyl sulfamate]
8.62	7.38	CN(c1ccc(C#N)c(-c2ccc(OS(N)(=O)=O)cn2)c1)n1cnc2ccccc21 [Example 37, 6-(5-((1H-Benzo[d]imidazol-1-yl)(methyl)amino)-2-cyanophenyl)pyridin-3-yl sulfamate]
8.54	8.27	N#Cc1cnc(Cn2cnc3cc(F)c(F)cc32)nc1-c1ccc(OS(N)(=O)=O)cc1 [Example 52, 4-(5-Cyano-2-((5,6-difluoro-1H-benzo[d]imidazol-1-yl)methyl)pyrimidin-4-yl)phenyl sulfamate]
8.68	< 7.22	CN(c1cnc(C#N)c(-c2ccc(OS(N)(=O)=O)cc2)c1)n1cnc2cccnc21 [Example 45, 4-(5-((3H-Imidazo[4,5-b]pyridin-3-yl)(methyl)amino)-2-cyanopyridin-3-yl)phenyl sulfamate]
8.70	8.17	N#Cc1ccc(Nn2cnc3ccccc32)cc1-c1ccc(OS(N)(=O)=O)cc1 [Example 2, 5′-(1H-Benzo[d]imidazol-1-ylamino)-2′-cyano-[1,1′-biphenyl]-4-yl sulfamate]
